Earlier results, collected in patent US20250195401A1, “COSMETIC COMPOSITION OF LIPOSOMES CONTAINING AN EXTRACT OF HAEMATOCOCCUS PLUVIALIS, TETRAHEXYLDECYL ASCORBATE AND ECTOIN” (IMAGE INTERNATIONAL MANUFACTURING, LLC, priority 2023, published 2025).

Details: 6 h at 190° C.

## CC1=N[C@H](C(=O)O)CCN1 [Ectoine, (4S)-2-methyl-1,4,5,6-tetrahydropyrimidine-4-carboxylic acid]
  stability at high temperatures: very stable
